Article PMC5607274, “An iterative compound screening contest method for identifying target protein inhibitors using the tyrosine-protein kinase Yes” (Scientific Reports, 2017)

Target: T1, human recombinant Yes [a.a. 2–543 (end)] (Homo sapiens, UniProt P07947)
T1 construct: human recombinant Yes [a.a; 2–543 (end)]; purchased BPS Bioscience 40488
Test: ADP-Glo kinase assay, inhibition rates of Yes phosphorylation activity (first and second screening)
Assay type: biochemical
Conditions: 10 μmol L−1 compound; for First screening IR (inhibition rate): mean of n = 4 wells
Outline: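 Hits from a first pass were rescreened after re-dissolution from fresh powder. The first pass reported the mean inhibition rate of quadruplicate wells per compound. Activity was that of recombinant human Yes [a.a. 2–543] kinase, read out with the ADP-Glo ADP-detection method.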

T1 sequence (P07947 2-543): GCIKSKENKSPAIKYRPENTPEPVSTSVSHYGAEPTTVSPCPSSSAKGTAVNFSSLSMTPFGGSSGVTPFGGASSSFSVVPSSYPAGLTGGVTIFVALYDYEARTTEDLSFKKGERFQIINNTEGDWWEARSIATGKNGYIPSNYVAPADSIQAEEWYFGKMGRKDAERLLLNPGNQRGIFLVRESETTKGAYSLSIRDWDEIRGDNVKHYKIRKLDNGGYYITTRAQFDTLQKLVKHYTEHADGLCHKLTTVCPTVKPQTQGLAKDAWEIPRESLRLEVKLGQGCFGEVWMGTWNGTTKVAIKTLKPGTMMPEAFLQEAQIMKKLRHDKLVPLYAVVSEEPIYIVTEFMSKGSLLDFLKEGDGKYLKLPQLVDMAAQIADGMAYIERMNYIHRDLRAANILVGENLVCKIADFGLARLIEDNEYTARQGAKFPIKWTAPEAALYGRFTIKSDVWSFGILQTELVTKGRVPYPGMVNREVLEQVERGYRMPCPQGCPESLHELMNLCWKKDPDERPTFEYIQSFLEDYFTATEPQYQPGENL

Row | Compound | First screening IR (inhibition rate) | Second screening IR (inhibition rate) (second screening, dissolved from fresh powder, n = 4)
1 | O=C(CSc1nc2ccccc2s1)Nc1cccc2c1C(=O)c1ccccc1C2=O [Compound Z19654122] | 6% | –
2 | COc1ccc(Nc2cc3c(nnn3-c3ccc(C)cc3)c3c2C(=O)c2ccccc2C3=O)cc1 [Compound Z56857974] | 2% | –
3 | Oc1[nH]c2ccc(Br)cc2c1N=Nc1ccccn1 [Compound Z49660185] | -9% | –
4 | O=C(CN1C(=O)c2ccccc2C1=O)NCc1cn(Cc2ccccc2)nc1-c1ccccc1 [Compound Z230132198] | 24% | –
5 | COc1cc(Cl)c(C)cc1NC(=O)CN(Cc1ccco1)S(=O)(=O)c1cccc(Cl)c1 [Compound Z25969255] | 38% | –
6 | O=C(CSc1n[nH]c(-c2cccs2)n1)Nc1ccc(-c2ccccc2)cc1 [Compound Z19449989] | 4% | –
7 | O=c1c2ccc(C(F)(F)F)cc2nc2n1CC/C2=C/c1cccnc1 [Compound Z45931417] | 0% | –
8 | O=C(Nc1ccc2[nH]c(=O)[nH]c2c1)c1cc2c(s1)-c1ccccc1CC2 [Compound Z26792816] | 4% | –
9 | Cc1ccc(C)c(CS(=O)(=O)CCCS(=O)(=O)N(C)C)c1 [Compound Z1127660495] | 12% | –
10 | Brc1ccc2nc(CNCc3cnc(-c4ccccc4)nc3)cn2c1 [Compound Z736057568] | 4% | –
11 | NC(=O)CCN(C(=O)CSc1ncc2ccccn12)c1ccccc1 [Compound Z166362686] | 55% | –
12 | CC(NC(=O)C(C)N1CCCN(Cc2ccc(C#N)cc2)CC1)c1ccccc1 (centres unmarked) [Compound Z229381330] | -12% | –
13 | CC1CC2CCCCC2N1c1ncnc2c1nnn2-c1ccccc1 (centres unmarked) [Compound Z1270084447] | 45% | –
14 | O=C(C1=C(O)C(=O)N(CCCn2ccnc2)C1c1ccc(Cl)cc1)c1ccco1 (centres unmarked) [Compound Z57237929] | 20% | –
15 | Cc1cc(F)ccc1S(=O)(=O)Nc1ccc(C(=O)Nc2cccc(CO)c2)cc1 [Compound Z32804094] | 11% | –
16 | CCCCNS(=O)(=O)C1=CCS(=O)(=O)C1 [Compound Z1342205464] | 9% | –
17 | O=C(NCC1COc2ccccc2O1)c1cccc(OCc2cn3ccccc3n2)c1 (centres unmarked) [Compound Z185334464] | -12% | –
18 | Fc1ccc(-c2n[nH]c(CNc3cncc(Cl)n3)n2)cc1 [Compound Z1309541011] | -11% | –
19 | CN(C)S(=O)(=O)c1cccc(CS(=O)(=O)c2ccccn2)c1 [Compound Z432528000] | 4% | –
20 | COc1ccccc1-c1nn(-c2ccccc2)cc1C(=O)N1CCN(CC(=O)N2CCCCC2)CC1 [Compound Z145138304] | 15% | –
21 | COc1c(CNCc2ccc(C(=O)N(C)C)cc2)c(C)nn1C [Compound Z991036884] | 27% | -29%
22 | O=C(Nc1nc2c(s1)CN(Cc1ccccc1)CC2)c1csc(-c2ccsc2)n1 [Compound Z108907460] | 8% | –
23 | CC(C)N(CC#N)S(=O)(=O)c1ccccc1S(C)(=O)=O [Compound Z1411146082] | -35% | –
24 | Cc1ccccc1-c1nc(SCc2cn3cc(Cl)ccc3n2)n[nH]1 [Compound Z221422064] | 36% | –
25 | CCN(CC)C(=O)c1cc(-c2cc(C)oc2C)nc2c1cnn2C(C)C [Compound Z223881508] | -12% | –
26 | CC1(C)CN(S(=O)(=O)C2CS(=O)(=O)c3ccccc32)CCO1 (centres unmarked) [Compound Z1031114832] | -4% | –

Row | Compound | First screening IR (inhibition rate) | Second screening IR (inhibition rate) (second screening, dissolved from fresh powder, n = 4)
27 | Cc1cccc(NC(=O)CNC(=O)c2cn3c(C)cccc3n2)c1C [Compound Z27271554] | 3% | –
28 | O=S1(=O)CCC(SSC2CCS(=O)(=O)C2)C1 (centres unmarked) [Compound Z57056477] | 3% | –
29 | O=C(C1CC1)N1CCCCCC1C1CCN(Cc2nnc(C3CC3)o2)CC1 (centres unmarked) [Compound Z1170432033] | 7% | –
30 | COc1ccc2c(c1)c(CC(=O)N1CCN(Cc3ccccc3)CC1)c(C)n2C(=O)c1ccc(Cl)cc1 [Compound Z27764077] | 10% | –
31 | O=S1(=O)CCN(S(=O)(=O)Cl)CC1 [Compound Z432047124] | 0% | –
32 | O=C1CCCCCN1CCCNC(=O)N1CCN(S(=O)(=O)c2c(Cl)cccc2Cl)CC1 [Compound Z183473124] | -3% | –
33 | COc1cccc(-c2cc(-c3ccccc3)c3ccccc3n2)c1.Cl [Compound Z48951025] | -6% | –
34 | CS(=O)(=O)c1ccc(C(=O)NCc2ccc(-n3ccnc3)c(F)c2)cc1 [Compound Z826157056] | -29% | –
35 | Cc1cc(C(=O)COc2ncnc3ccccc23)c(C)n1CC(F)(F)F [Compound Z18537891] | 6% | –
36 | Cc1ccccc1Nc1nc(N)nc(CSCc2ccc(Cl)cc2)n1 [Compound Z18432818] | 6% | –
37 | CN(CC(=O)N1CCN(CC(=O)NC(C)(C)C)CC1)c1ncnc2cc(-c3ccc(F)cc3)sc12 [Compound Z64655268] | 6% | –
38 | COc1ccc(C(=O)Nc2n[nH]c(-c3ccc(F)cc3)n2)cc1 [Compound Z108548640] | 6% | –
39 | Cc1cc(=O)c(C(=O)N2CCC(C(=O)N3CCCCCC3)CC2)nn1-c1ccccc1F [Compound Z117548264] | 2% | –
40 | CC1(C)CN(c2nc(-c3ccncc3)nc3c2CCC3)CC[S+]1[O-] (centres unmarked) [Compound Z1396757600] | 8% | –
41 | O=C(COc1c(Br)cc(Br)c2cccnc12)N1CCCCC1 [Compound Z19811005] | 5% | –
42 | CC(SCc1nc(N)nc(N(C)C)n1)C(=O)Nc1ccc2c(c1)CCC2 (centres unmarked) [Compound Z197454542] | 5% | –
43 | Cc1nc(NCC2CCN(c3ccc(F)cc3)C2)c2cnn(C)c2n1 (centres unmarked) [Compound Z815820560] | -4% | –
44 | CC(C)(Oc1ccc(Cl)cc1)C(=O)Nc1n[nH]c(-c2ccc(F)cc2)n1 [Compound Z108548764] | 16% | –
45 | CCN(CC)S(=O)(=O)c1ccc(N2CCC(NC(C)C)CC2)c([N+](=O)[O-])c1 [Compound Z1082766798] | 8% | –
46 | Cc1ccc(Cn2ncc3c(NN)ncnc32)cc1 [Compound Z57458515] | 9% | –
47 | CN(C1CCS(=O)(=O)C1)S(=O)(=O)c1cc(Cl)cc(Cl)c1 (centres unmarked) [Compound Z89320874] | 17% | –
48 | O=C(Cc1cn2ccsc2n1)NCCN1C(=O)S/C(=C/c2cccnc2)C1=O [Compound Z27116942] | 12% | –
49 | CC(=O)c1cccc(OCC(=O)Nc2nc3ccccc3[nH]2)c1 [Compound Z27665121] | -6% | –
50 | Cc1cccc(NCC2CCN(Cc3cccc(C(N)=O)c3)C2)n1 (centres unmarked) [Compound Z990551490] | 2% | –
51 | Cc1ccc(-n2c(=O)/c(=C/c3ccc4c(c3)OCO4)s/c2=C(/C#N)C(=O)NCCN2CCOCC2)c(C)c1 [Compound Z47840324] | -11% | –
52 | COc1ccc(-n2cc(-c3ccccc3)c3c(=O)[nH]cnc32)cc1 [Compound Z295463532] | -5% | –
